Key:
Format in all cases: biochemical
ZmHXK6Δ30 [1] = biological target: T1, ZmHXK6Δ30 (Zea mays, UniProt A0A1D6NCX2); test: coupled pyruvate kinase/lactate dehydrogenase NADH assay, A340; settings: read-out: Substrate / Mannose; 2 mM ATP, 2 mM MgCl2, pH 8.0
T1 construct: gene LOC103651223; N-terminal mitochondrial anchor deleted (87 nucleotides after the start codon, first 30 residues); E. coli BL21-CodonPlus(DE3)-RIL
Text: coupled pyruvate kinase/lactate dehydrogenase NADH assay, A340 on ZmHXK6Δ30

ZmHXK4Δ30 [2] = biological target: T2, ZmHXK4Δ30 (Zea mays, UniProt K7VX77); test: as above; settings: read-out: Substrate / Mannose; 2 mM ATP, 2 mM MgCl2, pH 8.0
T2 construct: gene LOC542510; N-terminal mitochondrial anchor deleted (87 nucleotides after the start codon, first 30 residues); E. coli BL21-CodonPlus(DE3)-RIL
Text: coupled pyruvate kinase/lactate dehydrogenase NADH assay, A340 on ZmHXK4Δ30

ZmHXK5Δ30 [3] = biological target: T3, ZmHXK5Δ30 (Zea mays, UniProt A0A1D6MAK9); test: as above; settings: read-out: Substrate / Mannose; 2 mM ATP, 2 mM MgCl2, pH 8.0
T3 construct: N-terminal mitochondrial anchor deleted (87 nucleotides after the start codon, first 30 residues); E. coli BL21-CodonPlus(DE3)-RIL
Text: coupled pyruvate kinase/lactate dehydrogenase NADH assay, A340 on ZmHXK5Δ30

ZmHXK4Δ30 [4] = biological target: T2, ZmHXK4Δ30; test: coupled G6PDH/NADP+ assay, A340; settings: 2 mM MgCl2, pH 8.0
Text: coupled G6PDH/NADP+ assay, A340 on ZmHXK4Δ30

ZmHXK7 = biological target: T4, ZmHXK7 (Zea mays, UniProt C0HF79); test: coupled G6PDH/NADP+ assay, A340; settings: 5 mM Glc, 2 mM ATP, 2 mM MgCl2, pH 8.0; product inhibition; PEP/pyruvate kinase listed in the reaction medium; read-out: ADP
T4 construct: full length, soluble; E. coli BL21-CodonPlus(DE3)-RIL
Text: coupled G6PDH/NADP+ assay, A340 on ZmHXK7

ZmHXK5Δ30 [5] = biological target: T3, ZmHXK5Δ30; test: coupled G6PDH/NADP+ assay, A340; settings: 2 mM MgCl2, pH 8.0
Text: coupled G6PDH/NADP+ assay, A340 on ZmHXK5Δ30

ZmHXK8 = biological target: T5, ZmHXK8 (Zea mays, UniProt B4FB85); test: coupled G6PDH/NADP+ assay, A340; settings: 50 mM Glc, 2 mM ATP, 2 mM MgCl2, pH 8.0; product inhibition; PEP/pyruvate kinase listed in the reaction medium; read-out: ADP
T5 construct: full length, soluble; E. coli BL21-CodonPlus(DE3)-RIL
Text: coupled G6PDH/NADP+ assay, A340 on ZmHXK8

ZmHXK6Δ30 [6] = biological target: T1, ZmHXK6Δ30; test: coupled G6PDH/NADP+ assay, A340; settings: 2 mM MgCl2, pH 8.0
Text: coupled G6PDH/NADP+ assay, A340 on ZmHXK6Δ30

[7] = 5 mM Glc, 2 mM ATP, product inhibition, PEP/pyruvate kinase listed in the reaction medium, read-out: ADP
[8] = read-out: Substrate / Glucose, 2 mM ATP
[9] = read-out: Substrate / ATP, 5 mM Glc

OC[C@H]1OC(O)[C@@H](O)[C@@H](O)[C@@H]1O (some centres unmarked) [mannose]
Km (ZmHXK6Δ30 [1]): 48.9 ± 1.06 µM
Km (ZmHXK4Δ30 [2]): 139 ± 22.4 µM
Km (ZmHXK5Δ30 [3]): 120 ± 33.3 µM

Nc1ncnc2c1ncn2[C@@H]1O[C@H](COP(=O)(O)OP(=O)(O)O)[C@@H](O)[C@H]1O [ADP]
IC50 (ZmHXK4Δ30 [4]; [7]): 710 ± 150 µM
IC50 (ZmHXK7): 6470 ± 1140 µM
IC50 (ZmHXK5Δ30 [5]; [7]): 690 ± 150 µM
IC50 (ZmHXK8): 3120 ± 1140 µM
IC50 (ZmHXK6Δ30 [6]; [7]): 720 ± 140 µM

OC[C@H]1OC(O)[C@H](O)[C@@H](O)[C@@H]1O (some centres unmarked) [glucose]
Km (ZmHXK4Δ30 [4]; [8]): 196 ± 32 µM
Km (ZmHXK5Δ30 [5]; [8]): 137 ± 20 µM
Km (ZmHXK6Δ30 [6]; [8]): 65.9 ± 15.2 µM

Nc1ncnc2c1ncn2[C@@H]1O[C@H](COP(=O)(O)OP(=O)(O)OP(=O)(O)O)[C@@H](O)[C@H]1O [ATP]
Km (ZmHXK4Δ30 [4]; [9]): 135 ± 25.7 µM
Km (ZmHXK5Δ30 [5]; [9]): 136 ± 11.5 µM
Km (ZmHXK6Δ30 [6]; [9]): 199 ± 12.8 µM
